Patent EP4700025A1, “AMIDE COMPOUND, PHARMACEUTICAL COMPOSITION COMPRISING SAME, AND USE THEREOF” (Suzhou Genhouse Bio Co., Ltd., priority 2023, dated 2024)

Key:
[1] = Mouse brain-to-blood and tumor tissue-to-blood drug concentration ratio (PC-9 tumor-bearing mice); format: in vivo, Balb/c-nude female mice; details: 5 mg/kg PO, PC-9 tumor-bearing mice
Protocol: Human lung cancer PC-9 cells were cultured in monolayer in vitro using the 1640 culture medium (HyClone) containing 10% fetal bovine serum (BI) and 1% penicillin and streptomycin (Beyotime) in an incubator at 37 °C with 5% CO2. The cells were digested with trypsin 2 to 3 times weekly for passaging. When the saturation degree of the cells was 80% to 90%, the cells were collected, counted, and inoculated. 5 × 10^6 (0.2 mL, 1:1 gel addition) PC-9 cells were subcutaneously inoculated into the right back of Balb/c-nude female mice, and the mice were used for subsequent PK and tissue distribution experiments after the mean tumor volume reached about 500 mm^3. On the day of administration, mice were weighed for actual body weight and the administration volume was calculated. In each group of 9 mice, the compound was administered by single intravenous injection or oral gavage. Whole blood samples were collected via the orbit at prescribed time points. After the blood sample collection, the samples were immediately transferred to labeled commercial sample tubes containing K2-EDTA (0.85 to 1.15 mg), followed by centrifugation (3200× g, 4 °C, 10 min) and plasma collection. The plasma was transferred to a pre-cooled centrifuge tube, frozen in dry ice, and then stored in an ultra-low temperature freezer at -60 °C or lower until the LC-MS/MS analysis was performed. Tumor and brain tissues were collected after the animals were euthanized using CO2 at prescribed time points, frozen in liquid nitrogen, and stored in an ultra-low temperature freezer at -60 °C or lower until the LC-MS/MS analysis was performed. 20 µL of the plasma sample or brain/tumor tissue homogenate was added to 80 µL of an internal standard solution (a 50 ng/mL solution of propafenone in acetonitrile). The plate was sealed using a film sealer at 165 °C, shaken on a micro oscillator (at the maximum vibration speed) for 10 min, and centrifuged at 4000 rpm for 20 min using a low-speed benchtop centrifuge; 10 µL of the supernatant was transferred and added to 90 µL of acetonitrile. The mixture was vortexed and mixed well, and then the plate was sealed using the film sealer at 165 °C. After the mixture was vortexed and mixed well, 1 µL of the supernatant was subjected to LC-MS/MS analysis.
• Brain-to-blood drug concentration ratio of mice at the same time point = drug concentration in brain tissue/drug concentration in plasma • Tumor tissue-to-blood drug concentration ratio of mice at the same time point = drug concentration in tumor tissue/drug concentration in plasma

HCT-116 = test: CCK8 proliferation inhibition, HCT-116; format: cell-based; details: Homo sapiens, 192 h, CCK8, 8 days after drug treatment
Protocol: (§1) The above normally growing cells were digested with a cell trypsinization solution, centrifuged, counted, and seeded into a 96-well plate at an appropriate cell density (2000 cells/well) at 100 µL/well. The next day after cell seeding, the compounds at different concentrations were added to the wells. Three replicate wells were set for each concentration point, and a corresponding DMSO negative control group was also set. CCK8 solution was added to each well 8 days after drug treatment. The plate was incubated at 37 °C for a period of time (OD450 of the vehicle group reached 1.0 or higher) before the absorbance at 450 nm was read using a microplate reader. The inhibition rates were calculated, and the EC50 values were determined by fitting using the GraphPad Prism 7.0 software. Table 2. EC50 values of compounds at cellular level

SDMA [2] = test: SDMA Inhibition Assay in HCT-116 cells; format: cell-based; details: Homo sapiens, HCT-116, 96 hours
Protocol: (§2) The next day, the cells were treated with the compounds at different concentrations (with an initial concentration of 10 µM, 5-fold dilution, 9 concentration gradients). After 96 hours, the culture medium was pipetted out and the cells were washed 2 times with 100 µL of PBS. The cells were then fixed with 4% paraformaldehyde and incubated at room temperature for 20 min. The fixative solution was discarded, and the cells were washed with PBS. 150 µL of specialized blocking solution (containing 1% Triton-100) was added to each well for blocking at room temperature for 2 hours, and the plate was washed with PBS to remove excess blocking solution. […] The cells were incubated at 4 °C overnight. The next day, the cells were separately washed 2 times with 1× PBST. […] The cells were incubated at room temperature for 2 hours. The cells were washed 2 times with 1× PBST and 1 time with PBS. Fluorescence signals at 700 nm and 800 nm were separately detected using a Li-COR Odyssey two-color near-infrared laser imager. The inhibition rates were calculated, and the EC50 values were determined by fitting using the GraphPad Prism 7.0 software. Table 3. Inhibition of SDMA by test compounds

SDMA [3] = test: SDMA Inhibition Assay in HCT-116-MTAP^-/- cells; format: cell-based; details: Homo sapiens, 96 hours
Protocol: as §2

HCT-116-MTAP^-/- = test: CCK8 proliferation inhibition, HCT-116-MTAP^-/-; format: cell-based; details: Homo sapiens, 192 h; HCT-116-MTAP^-/- (MTAP-deficient); CCK8, 8 days after drug treatment
Protocol: as §1

NCI-H838 cells = test: Pharmacodynamic study, NCI-H838 subcutaneous xenograft; format: in vivo, mouse
Protocol: Human non-small cell lung cancer NCI-H838 cells were cultured in monolayer in vitro using the McCoy 5A culture medium (HyClone) containing 10% fetal bovine serum (BI) and 1% penicillin and streptomycin (Beyotime) in an incubator at 37 °C with 5% CO2. The cells were digested with trypsin 2 to 3 times weekly for passaging. When the saturation degree of the cells was 80% to 90%, the cells were collected, counted, and inoculated. 5 × 10^6 (0.1 mL) NCI-H838 cells were subcutaneously inoculated on the right back of each mouse. On about day 29 after inoculation of the cells, the mean tumor volume reached 156 mm^3. The mice were randomly grouped for administration (the animals were divided into an administration group and a control group, with 6 animals in each group). The day of grouping was designated as d0, and intragastric administration was started on d1. The administration was performed once daily at an administration volume of 10 mL/kg. Vehicle control was administered to the control group. The tumor volume was measured 2 to 3 times weekly, and meanwhile, the mice were weighed and the data were recorded; daily observations were made to record the body surface signs of the mice. After the experiment was completed, the tumors were collected, weighed, and photographed for recording.
Calculation formula for tumor volume: Tumor volume (mm^3) = 1/2 × (a×b^2) [formula] (note: a represents long diameter and b represents short diameter) [formula]

CYP450 3A4 = molecular target: T1, CYP450 3A4 (Homo sapiens, UniProt P08684); test: Inhibition of human liver microsome CYP450 enzyme 3A4; format: in vitro ADME; details: human, microsomes, pH 7.4
T1 construct: from tissue; host or cells: human liver microsomes
T1 sequence (P08684 whole entry): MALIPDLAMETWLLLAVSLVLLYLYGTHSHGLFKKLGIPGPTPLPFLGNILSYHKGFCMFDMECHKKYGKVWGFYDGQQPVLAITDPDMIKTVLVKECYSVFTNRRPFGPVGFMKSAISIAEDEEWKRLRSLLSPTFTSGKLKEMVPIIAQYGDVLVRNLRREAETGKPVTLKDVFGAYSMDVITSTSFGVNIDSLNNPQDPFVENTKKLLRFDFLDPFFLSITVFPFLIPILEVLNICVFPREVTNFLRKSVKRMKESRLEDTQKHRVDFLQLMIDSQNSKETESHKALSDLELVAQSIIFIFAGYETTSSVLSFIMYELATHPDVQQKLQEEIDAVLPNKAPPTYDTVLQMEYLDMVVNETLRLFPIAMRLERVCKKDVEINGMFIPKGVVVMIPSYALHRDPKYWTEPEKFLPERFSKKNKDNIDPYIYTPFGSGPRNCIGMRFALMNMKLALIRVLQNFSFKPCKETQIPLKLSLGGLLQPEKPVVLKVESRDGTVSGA
Protocol: 100 mM K-Buffer: 9.5 mL of stock solution A was mixed with 40.5 mL of stock solution B, the total volume was adjusted to 500 mL with ultrapure water, and the buffer was titrated to pH 7.4 with KOH or H3PO4. • Starting material A (1 M potassium dihydrogen phosphate): 136.5 g of potassium dihydrogen phosphate in 1 L of water; • Stock solution B ([…]): 174.2 g of potassium dihydrogen phosphate in 1 L of water.
The test substance powder was prepared into a stock solution at a certain concentration with DMSO or another organic solvent, which was then further diluted with a suitable organic solvent.
The liver microsomal in vitro incubation system for the CYP450 enzyme metabolism phenotype study was a biochemical reaction of the prepared liver microsomes supplemented with a redox coenzyme and an enzyme-specific selective inhibitor under simulated physiological temperature and physiological environment conditions.
The concentration of the parent drug or a metabolite thereof in the incubation solution was determined by LC-MS/MS. and the IC50 value was calculated.

A549 = test: CCK8 proliferation inhibition, A549; format: cell-based; details: Homo sapiens, 192 h, CCK8, 8 days after drug treatment
Protocol: as §1

SDMA [4] = test: SDMA Inhibition Assay in A549 cells; format: cell-based; details: Homo sapiens, A549, 96 hours
Protocol: as §2

Row | SMILES | Brain-to-blood drug concentration ratio ([1]; 1 h) | Drug concentration in blood ([1]; 1 h) | Drug concentration in brain ([1]; 1 h) | Drug concentration in tumor tissue ([1]; 1 h) | Tumor tissue-to-blood drug concentration ratio ([1]; 1 h) | Brain-to-blood drug concentration ratio ([1]; 4 h) | Drug concentration in blood ([1]; 4 h) | Drug concentration in brain ([1]; 4 h) | Drug concentration in tumor tissue ([1]; 4 h) | Tumor tissue-to-blood drug concentration ratio ([1]; 4 h) | EC50 (HCT-116) | EC50 (SDMA [2]) | EC50 (SDMA [3]) | EC50 (HCT-116-MTAP^-/-) | Day 31 TGI (NCI-H838 cells; 10 mpk PO QD) | Day 31 TGI (NCI-H838 cells; 30 mpk PO QD) | Day 31 TGI (NCI-H838 cells; 100 mpk PO QD) | IC50 (CYP450 3A4) | EC50 (A549) | EC50 (SDMA [4])
1 | Cn1ncc2c(N)nc3cnc(C(=O)N4CCN(C5CC5)CC4c4ccc5c(c4)OC(F)(F)O5)cc3c21 (racemic) [Example I-112] | 1.17 | 0.22 µg/mL | 0.258 µg/mL | 0.346 µg/mL | 1.57 | 3.05 | 0.0103 µg/mL | 0.0313 µg/mL | 0.093 µg/mL | 9.05 | > 10 µM | 0.285 µM | 0.0029 µM | 0.057 µM |  |  |  |  |  | 
2 | Cn1ncc2c(N)nc3cnc(C(=O)N(Cc4ccc5c(c4)OC(F)(F)O5)C4CC4)cc3c21 [Example I-37] |  |  |  |  |  |  |  |  |  |  | 0.545 µM | 0.205 µM | 0.0019 µM | 0.0101 µM | 58% | 71% | 104% | > 10 µM | 0.0727 µM | 0.0027 µM
3 | Cn1ncc2c(N)nc3cc(F)c(C(=O)N4CCCC[C@@H]4c4ccc5c(c4)OC(F)(F)O5)cc3c21 [Example I-80] |  |  |  |  |  |  |  |  |  |  | 0.201 µM | 0.065 µM | 0.0009 µM | 0.0047 µM |  |  |  |  | 0.0128 µM | 0.0022 µM
4 | Cn1ncc2c(N)nc3cnc(C(=O)N4CCCC[C@@H]4c4ccc5c(c4)OC(F)(F)O5)cc3c21 [Example I-111] |  |  |  |  |  |  |  |  |  |  | 2.17 µM | 0.254 µM | 0.001 µM | 0.015 µM |  |  |  |  | 0.077 µM | 0.0016 µM
